Data published in PubChem BioAssay AID248 (DTP/NCI, 2004).
Values joined by “and” are separate entries in the source; they are usually repeats but may differ in a detail not shown here. Equal entries are not always repeated. Toxic doses and inconclusive results are not listed. No stated cut-off is given here; in the data, active means T/C of 150% or more; inactive means T/C below 125%.

Test system: L1210 leukemia ip in BDF1 mice, survival T/C
Assay: NCI In Vivo Anticancer Drug Screen. Data for tumor model L1210 Leukemia (intraperitoneal) in B6D2F1 (BDF1) mice
Conditions: endpoint: mean survival time, higher = longer survival
Outline: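 Antitumor effect is assessed in tumor-bearing animals. Survival in the compound arm is compared with a vehicle-dosed control arm and expressed as their quotient.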

[1] = dose: 100.0 mg/kg/injection, schedule: Q01DX001 (ip), vehicle: saline
[2] = dose: 200.0 mg/kg/injection, schedule: Q01DX001 (ip), vehicle: saline
[3] = dose: 400.0 mg/kg/injection, schedule: Q01DX001 (ip), vehicle: saline
[4] = dose: 100.0 mg/kg/injection, schedule: Q01DX009 (ip), vehicle: Klucel (hydroxypropylcellulose) (HPC)
[5] = dose: 200.0 mg/kg/injection, schedule: Q01DX009 (ip), vehicle: Klucel (hydroxypropylcellulose) (HPC)
[6] = dose: 400.0 mg/kg/injection, schedule: Q01DX009 (ip), vehicle: Klucel (hydroxypropylcellulose) (HPC)
[7] = dose: 100.0 mg/kg/injection, schedule: Q04DX003 (ip), vehicle: Klucel (hydroxypropylcellulose) (HPC)
[8] = dose: 200.0 mg/kg/injection, schedule: Q04DX003 (ip), vehicle: Klucel (hydroxypropylcellulose) (HPC)
[9] = dose: 400.0 mg/kg/injection, schedule: Q04DX003 (ip), vehicle: Klucel (hydroxypropylcellulose) (HPC)
[10] = dose: 100.0 mg/kg/injection, schedule: Q04DX002 (ip), vehicle: Klucel (hydroxypropylcellulose) (HPC)
[11] = dose: 200.0 mg/kg/injection, schedule: Q04DX002 (ip), vehicle: Klucel (hydroxypropylcellulose) (HPC)
[12] = dose: 400.0 mg/kg/injection, schedule: Q04DX002 (ip), vehicle: Klucel (hydroxypropylcellulose) (HPC)
[13] = dose: 50.0 mg/kg/injection, schedule: Q01DX009 (ip), vehicle: saline with Tween-80
[14] = dose: 100.0 mg/kg/injection, schedule: Q01DX001 (ip), vehicle: saline with Tween-80
[15] = dose: 100.0 mg/kg/injection, schedule: Q01DX009 (ip), vehicle: saline with Tween-80
[16] = dose: 200.0 mg/kg/injection, schedule: Q01DX001 (ip), vehicle: saline with Tween-80
[17] = dose: 200.0 mg/kg/injection, schedule: Q01DX009 (ip), vehicle: saline with Tween-80
[18] = dose: 400.0 mg/kg/injection, schedule: Q01DX001 (ip), vehicle: saline with Tween-80
[19] = dose: 100.0 mg/kg/injection, schedule: Q04DX003 (ip), vehicle: saline with Tween-80
[20] = dose: 200.0 mg/kg/injection, schedule: Q04DX003 (ip), vehicle: saline with Tween-80
[21] = dose: 100.0 mg/kg/injection, schedule: Q04DX002 (ip), vehicle: saline with Tween-80
[22] = dose: 200.0 mg/kg/injection, schedule: Q04DX002 (ip), vehicle: saline with Tween-80
[23] = dose: 400.0 mg/kg/injection, schedule: Q04DX002 (ip), vehicle: saline with Tween-80
[24] = dose: 400.0 mg/kg/injection, schedule: Q04DX003 (ip), vehicle: saline with Tween-80

Measured: T/C

CN(C)CCOCCN(C)C
inactive: [1] 102 % of control | [2] 105 % of control | [3] 102 % of control

CC(C)(Br)C(=O)C(C)(C)Br
inactive: dose: 75.0 mg/kg/injection, schedule: Q01DX001 (ip), vehicle: saline 93 % of control | [4] 103 % of control | dose: 150.0 mg/kg/injection, schedule: Q01DX001 (ip), vehicle: saline 96 % of control | [5] 100 % of control | dose: 300.0 mg/kg/injection, schedule: Q01DX001 (ip), vehicle: saline 92 % of control | [6] 91 % of control

Cc1ncc([N+](=O)[O-])n1C
inactive: [7] 100 % of control | [8] 100 % of control | [9] 97 % of control

CC(=O)Nc1c(Cl)c(Cl)c2c(c1Cl)Cc1cc(Cl)c(Cl)cc1-2
inactive: dose: 50.0 mg/kg/injection, schedule: Q01DX009 (ip), vehicle: acetone 93 % of control | dose: 50.0 mg/kg/injection, schedule: Q04DX003 (ip), vehicle: acetone 94 % of control | dose: 100.0 mg/kg/injection, schedule: Q01DX009 (ip), vehicle: acetone 95 % of control | dose: 100.0 mg/kg/injection, schedule: Q04DX003 (ip), vehicle: acetone 93 % of control | dose: 200.0 mg/kg/injection, schedule: Q01DX009 (ip), vehicle: acetone 97 % of control | dose: 200.0 mg/kg/injection, schedule: Q04DX003 (ip), vehicle: acetone 93 % of control

O=C(OCc1ccccc1CN1CCCCC1)c1cccc(Cl)c1
inactive: [10] 109 % of control | [11] 98 % of control | [12] 91 % of control

CN1C2CCCC1CC(O)(c1ccccc1)C2 (configuration not stated)
inactive: dose: 12.5 mg/kg/injection, schedule: Q01DX001 (ip), vehicle: Klucel (hydroxypropylcellulose) (HPC) 96 % of control | dose: 25.0 mg/kg/injection, schedule: Q01DX001 (ip), vehicle: Klucel (hydroxypropylcellulose) (HPC) 99 % of control | dose: 50.0 mg/kg/injection, schedule: Q01DX001 (ip), vehicle: Klucel (hydroxypropylcellulose) (HPC) 102 % of control

CNC1CCCc2ccccc2C1O (configuration not stated)
inactive: [1] 102 % of control

[O-]/[N+](=N\O)c1ccc(/[N+]([O-])=N\O)cc1
inactive: dose: 12.5 mg/kg/injection, schedule: Q01DX009 (ip), vehicle: saline with Tween-80 88 % of control | dose: 25.0 mg/kg/injection, schedule: Q01DX009 (ip), vehicle: saline with Tween-80 88 % of control | [13] 97 % of control and 107 % of control and 91 % of control | [14] 95 % of control | [15] 102 % of control | [16] 98 % of control | [17] 87 % of control

COc1ccc(/C=C/c2cnccn2)cc1OC
inactive: [4] 101 % of control | [5] 101 % of control | [6] 106 % of control

O=S(=O)(O)OCc1cc(O)c(OS(=O)(=O)O)c(Br)c1Br
inactive: [14] 97 % of control | [16] 102 % of control | [18] 94 % of control

C/C=C(/C)N(C(C)=O)N(C(C)=O)c1ccc([N+](=O)[O-])cc1[N+](=O)[O-]
inactive: dose: 100.0 mg/kg/injection, schedule: Q01DX009 (ip), vehicle: other 103 % of control | dose: 100.0 mg/kg/injection, schedule: Q04DX003 (ip), vehicle: saline 104 % of control | dose: 200.0 mg/kg/injection, schedule: Q01DX009 (ip), vehicle: other 101 % of control | dose: 200.0 mg/kg/injection, schedule: Q04DX003 (ip), vehicle: saline 105 % of control | dose: 400.0 mg/kg/injection, schedule: Q01DX009 (ip), vehicle: other 97 % of control | dose: 400.0 mg/kg/injection, schedule: Q04DX003 (ip), vehicle: saline 107 % of control

COc1ccc([N+](=O)[O-])cc1NC(=S)NC(=O)c1cccc(Br)c1
inactive: [4] 92 % of control | [5] 92 % of control | [6] 97 % of control

C[C@]12CCC(=O)C[C@H]1CC[C@@H]1[C@@H]2CC[C@@]2(C)[C@H]1CC[C@]2(C)O
inactive: dose: 50.0 mg/kg/injection, schedule: Q01DX Z (sc), vehicle: steriod suspending solution 98 % of control | dose: 100.0 mg/kg/injection, schedule: Q01DX Z (sc), vehicle: steriod suspending solution 98 % of control | dose: 200.0 mg/kg/injection, schedule: Q01DX Z (sc), vehicle: steriod suspending solution 101 % of control | dose: 400.0 mg/kg/injection, schedule: Q01DX Z (sc), vehicle: steriod suspending solution 98 % of control

CSc1ncc(C(=O)O)c(=O)[nH]1
inactive: dose: 50.0 mg/kg/injection, schedule: Q01DX009 (ip), vehicle: Klucel (hydroxypropylcellulose) (HPC) 95 % of control | [4] 88 % of control and 90 % of control | [7] 104 % of control | [5] 94 % of control | [8] 101 % of control | [6] 88 % of control | [9] 102 % of control

S=C([S-])[P+](C1CCCCC1)(C1CCCCC1)C1CCCCC1
inactive: [13] 97 % of control | [15] 97 % of control | [19] 97 % of control | [17] 97 % of control | [20] 87 % of control

O=C1Nc2ccccc2C1Cc1cc2c(nn1)[nH]c1ccccc12 (configuration not stated)
inactive: dose: 12.5 mg/kg/injection, schedule: Q04DX002 (ip), vehicle: Klucel (hydroxypropylcellulose) (HPC) 95 % of control | dose: 25.0 mg/kg/injection, schedule: Q04DX002 (ip), vehicle: Klucel (hydroxypropylcellulose) (HPC) 106 % of control | dose: 50.0 mg/kg/injection, schedule: Q04DX002 (ip), vehicle: Klucel (hydroxypropylcellulose) (HPC) 103 % of control | [10] 122 % of control | [11] 96 % of control | [12] 92 % of control

CC(NC(=O)C(C)(C)C)c1ccc(-c2ccccc2)cc1 (configuration not stated)
inactive: [21] 98 % of control | [22] 95 % of control | [23] 98 % of control

Cc1c(Cl)cccc1NC(=S)Nc1ccccc1
inactive: [10] 100 % of control | [11] 95 % of control | [12] 95 % of control

COc1ccc(C(=O)c2ccccc2NC(C)=O)cc1
inactive: [19] 89 % of control | [20] 98 % of control | [24] 94 % of control

FC(F)(F)c1cc(Br)c2ccc3ncccc3c2n1
inactive: [21] 111 % of control | [22] 107 % of control | [23] 96 % of control

O=C(O)c1ccc(NC(=O)c2ccc3ccccc3c2O)cc1
inactive: [14] 104 % of control | [15] 109 % of control | [19] 102 % of control | [16] 103 % of control | [17] 110 % of control | [20] 100 % of control | [18] 101 % of control | [24] 96 % of control

N#CC(C#N)=NNc1ccc(S(=O)(=O)c2ccc(NN=C(C#N)C#N)cc2)cc1
inactive: [19] 103 % of control | [20] 97 % of control | [24] 97 % of control

O=[N+]([O-])c1cccc(/C=N/N(c2ccccc2)C2CCS(=O)(=O)C2)c1 (configuration not stated)
inactive: [10] 95 % of control | [11] 106 % of control | [12] 103 % of control

CCC[CH2][Pb]([CH2]CCC)([CH2]CCC)[n]1ccnc1
inactive: dose: 1.5 mg/kg/injection, schedule: Q01DX009 (ip), vehicle: Klucel (hydroxypropylcellulose) (HPC) 95 % of control | dose: 3.0 mg/kg/injection, schedule: Q01DX009 (ip), vehicle: Klucel (hydroxypropylcellulose) (HPC) 96 % of control | dose: 6.0 mg/kg/injection, schedule: Q01DX009 (ip), vehicle: Klucel (hydroxypropylcellulose) (HPC) 90 % of control | dose: 12.5 mg/kg/injection, schedule: Q04DX003 (ip), vehicle: Klucel (hydroxypropylcellulose) (HPC) 97 % of control | dose: 25.0 mg/kg/injection, schedule: Q04DX003 (ip), vehicle: Klucel (hydroxypropylcellulose) (HPC) 97 % of control | dose: 50.0 mg/kg/injection, schedule: Q01DX001 (ip), vehicle: saline 98 % of control | dose: 50.0 mg/kg/injection, schedule: Q04DX003 (ip), vehicle: Klucel (hydroxypropylcellulose) (HPC) 86 % of control | [1] 95 % of control | [2] 93 % of control

CC(C)(CO)C(=O)O
inactive: [1] 101 % of control | [2] 98 % of control | [3] 106 % of control
